Laboratory results from patent US11247990B1, “Bicyclic fused pyridine compounds as inhibitors of TAM kinases” (ARRAY BIOPHARMA INC., priority 2017, dated 2022).
pIC50: −log10 of the molar value. Where a name gives a salt, the structure may show the parent alone.

What follows are compounds tested against His-tagged recombinant human MER cytoplasmic domain (Homo sapiens (Human), UniProt Q12866) (assay: MER Enzyme Assay (LanthaScreen Eu Kinase Binding, TR-FRET)). Details: averaged IC50.
His-tagged recombinant human MER cytoplasmic domain, sequence (Q12866 527-999): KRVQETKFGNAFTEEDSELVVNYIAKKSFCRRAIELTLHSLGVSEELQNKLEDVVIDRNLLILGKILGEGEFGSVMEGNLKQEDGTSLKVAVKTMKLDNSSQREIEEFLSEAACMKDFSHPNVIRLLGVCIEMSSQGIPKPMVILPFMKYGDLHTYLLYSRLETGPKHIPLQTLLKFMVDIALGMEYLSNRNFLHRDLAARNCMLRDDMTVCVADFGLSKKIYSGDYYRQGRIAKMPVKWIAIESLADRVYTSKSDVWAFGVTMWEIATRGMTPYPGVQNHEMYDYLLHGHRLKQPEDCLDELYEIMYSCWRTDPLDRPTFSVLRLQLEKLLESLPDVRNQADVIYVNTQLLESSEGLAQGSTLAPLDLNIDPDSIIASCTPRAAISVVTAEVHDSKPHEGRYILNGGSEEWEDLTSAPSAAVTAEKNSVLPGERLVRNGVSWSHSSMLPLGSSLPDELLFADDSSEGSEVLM
Protocol: (§1) Compounds of Formula I were screened for their ability to inhibit MER kinase using Invitrogen's LanthaScreen™ Eu Kinase Binding technology. […] After a 60-minute incubation at 22° C., the reaction was measured using a PerkinElmer EnVision multimode plate reader via TR-FRET dual wavelength detection, and the percent of control (POC) was calculated using a ratiometric emission factor. […] The POC values are fit to a 4 parameter logistic curve and the IC50 value is point where the curve crosses 50 POC.
Work on CNc1cc2c(cn1)c(-c1cnn(C)c1)nn2[C@H]1CC[C@@H](Oc2cccc(C)c2)CC1 [Example 366, N-methyl-3-(1-methyl-1H-pyrazol-4-yl)-1-((1s,4s)-4-(m-tolyloxy)cyclohexyl)-1H-pyrazolo[4,3-c]pyridin-6-amine] yielded a pIC50 of over 8.00. Work on CCNc1cc2c(cn1)c(-c1cnn(C)c1)nn2[C@H]1CC[C@@H](Oc2ccc(C(=O)NC)cc2C(F)(F)F)CC1 [Example 392, 4-(((1s,4s)-4-(6-(ethylamino)-3-(1-methyl-1H-pyrazol-4-yl)-1H-pyrazolo[4,3-c]pyridin-1-yl)cyclohexyl)oxy)-N-methyl-3-(trifluoromethyl)benzamide] yielded a pIC50 of over 8.00. CCNc1cc2c(cn1)c(-c1ccn(C)c(=O)c1)nn2[C@H]1CC[C@@H](Oc2ccccc2F)CC1 [Example 398, 4-(6-(ethylamino)-1-((1s,4s)-4-(2-fluorophenoxy)cyclohexyl)-1H-pyrazolo[4,3-c]pyridin-3-yl)-1-methylpyridin-2(1H)-one] showed a pIC50 of over 8.00. In the case of CCNc1cc2c(cn1)c(-c1cnn(C(C)(C)C#N)c1)nn2[C@H]1CC[C@@H](Oc2ccccc2F)CC1 [Example 400, 2-(4-(6-(ethylamino)-1-((1s,4s)-4-(2-fluorophenoxy)cyclohexyl)-1H-pyrazolo[4,3-c]pyridin-3-yl)-1H-pyrazol-1-yl)-2-methylpropanenitrile], the pIC50 was over 8.00. Work on CCNc1cc2c(cn1)c(-c1cn[nH]c1)nn2[C@H]1CC[C@@H](Oc2ccccc2F)CC1 [Example 401, N-ethyl-1-((1s,4s)-4-(2-fluorophenoxy)cyclohexyl)-3-(1H-pyrazol-4-yl)-1H-pyrazolo[4,3-c]pyridin-6-amine] yielded a pIC50 of over 8.00. CCNc1cc2c(cn1)c(-c1cnn(C(CO)CO)c1)nn2[C@H]1CC[C@@H](Oc2ccccc2F)CC1 [Example 411, 2-(4-(6-(ethylamino)-1-((1s,4s)-4-(2-fluorophenoxy)cyclohexyl)-1H-pyrazolo[4,3-c]pyridin-3-yl)-1H-pyrazol-1-yl)propane-1,3-diol] showed a pIC50 of over 8.00. CCNc1cc2c(cn1)c(-c1cnn(C(CO)CO)c1)nn2[C@H]1CC[C@@H](Oc2cccc(F)c2)CC1 [Example 412, 2-(4-(6-(ethylamino)-1-((1s,4s)-4-(3-fluorophenoxy)cyclohexyl)-1H-pyrazolo[4,3-c]pyridin-3-yl)-1H-pyrazol-1-yl)propane-1,3-diol] was tested, and the pIC50 was over 8.00. CCNc1cc2c(cn1)c(-c1cnn(C(CO)CO)c1)nn2[C@H]1CC[C@@H](Oc2ccc(F)cc2)CC1 [Example 413] gave a pIC50 of over 8.00. CCNc1cc2c(cn1)c(-c1cnn(C(CO)CO)c1)nn2[C@H]1CC[C@@H](Oc2cc(F)ccc2F)CC1 [Example 416, 2-(4-(1-((1s,4s)-4-(2,5-difluorophenoxy)cyclohexyl)-6-(ethylamino)-1H-pyrazolo[4,3-c]pyridin-3-yl)-1H-pyrazol-1-yl)propane-1,3-diol] gave a pIC50 of over 8.00. CCNc1cc2c(cn1)c(-c1cnn(C(CO)CO)c1)nn2[C@H]1CC[C@@H](Oc2ccc(F)c(F)c2)CC1 [Example 418, 2-(4-(1-((1s,4s)-4-(3,4-difluorophenoxy)cyclohexyl)-6-(ethylamino)-1H-pyrazolo[4,3-c]pyridin-3-yl)-1H-pyrazol-1-yl)propane-1,3-diol] gave a pIC50 of over 8.00. CCNc1cc2c(cn1)c(-c1cnn(C3CCS(=O)(=O)C3)c1)nn2[C@H]1CC[C@@H](Oc2ccccc2F)CC1 (stereo partly drawn) [Example 425, 3-(4-(6-(ethylamino)-1-((1s,4s)-4-(2-fluorophenoxy)cyclohexyl)-1H-pyrazolo[4,3-c]pyridin-3-yl)-1H-pyrazol-1-yl)tetrahydrothiophene 1,1-dioxide] gave a pIC50 of over 8.00. For CCNc1cc2c(cn1)c(-c1cnn(C3CS(=O)(=O)C3)c1)nn2[C@H]1CC[C@@H](Oc2ccccc2F)CC1 [Example 426, 3-(4-(6-(ethylamino)-1-((1s,4s)-4-(2-fluorophenoxy)cyclohexyl)-1H-pyrazolo[4,3-c]pyridin-3-yl)-1H-pyrazol-1-yl)thietane 1,1-dioxide], the pIC50 was over 8.00. With CCNc1cc2c(cn1)c(-c1cnn(C[C@H](O)[C@H](C)O)c1)nn2[C@H]1CC[C@@H](Oc2ccccc2F)CC1 [Example 430, (2S,3S)-1-(4-(6-(ethylamino)-1-((1s,4R)-4-(2-fluorophenoxy)cyclohexyl)-1H-pyrazolo[4,3-c]pyridin-3-yl)-1H-pyrazol-1-yl)butane-2,3-diol] the pIC50 was over 8.00. CCNc1cc2c(cn1)c(-c1cnn(C[C@@H](O)CO)c1)nn2[C@H]1CC[C@@H](Oc2cccc(C)c2F)CC1 [Example 438, (R)-3-(4-(6-(ethylamino)-1-((1s,4S)-4-(2-fluoro-3-methylphenoxy)cyclohexyl)-1H-pyrazolo[4,3-c]pyridin-3-yl)-1H-pyrazol-1-yl)propane-1,2 diol] showed a pIC50 of over 8.00. CCNc1cc2c(cn1)c(-c1cnn(C[C@H](O)C(C)(C)O)c1)nn2[C@H]1CC[C@@H](Oc2cccc(Cl)c2)CC1 [Example 441, (S)-1-(4-(1-((1s,4R)-4-(3-chlorophenoxy)cyclohexyl)-6-(ethylainino)-1H-pyrazolo[4,3-c]pyridin-3-yl)-1H-pyrazol-1-yl)-3-methylbutane-2,3-diol] gave a pIC50 of over 8.00. CCNc1cc2c(cn1)c(-c1cnn(C[C@@H](O)C(C)(C)O)c1)nn2[C@H]1CC[C@@H](Oc2cccc(Cl)c2)CC1 [Example 443, (R)-1-(4-(1-((1s,4S)-4-(3-chlorophenoxy)cyclohexyl)-6-(ethylamino)-1H-pyrazolo[4,3-c]pyridin-3-yl)-1H-pyrazol-1-yl)-3-methylbutane-2,3-diol] gave a pIC50 of over 8.00. CCNc1cc2c(cn1)n(-c1ccc(CN3CCN(C)CC3)cc1)nc2[C@H]1CC[C@@H](Oc2ccccc2F)CC1 [Example 482, N-ethyl-3-((1s,4s)-4-(2-fluorophenoxy)cyclohexyl)-1-(4-((4-methylpiperazin-1-yl)methyl)phenyl)-1H-pyrazolo[3,4-c]pyridin-5-amine] gave a pIC50 of over 8.00.

Each compound was assayed against GST-tagged recombinant human TYRO3 kinase domain (Homo sapiens (Human), UniProt Q06418) (assay: TYRO3 Enzyme Assay (LanthaScreen Eu Kinase Binding, TR-FRET)). Details: averaged IC50.
GST-tagged recombinant human TYRO3 kinase domain, sequence (Q06418 518-790): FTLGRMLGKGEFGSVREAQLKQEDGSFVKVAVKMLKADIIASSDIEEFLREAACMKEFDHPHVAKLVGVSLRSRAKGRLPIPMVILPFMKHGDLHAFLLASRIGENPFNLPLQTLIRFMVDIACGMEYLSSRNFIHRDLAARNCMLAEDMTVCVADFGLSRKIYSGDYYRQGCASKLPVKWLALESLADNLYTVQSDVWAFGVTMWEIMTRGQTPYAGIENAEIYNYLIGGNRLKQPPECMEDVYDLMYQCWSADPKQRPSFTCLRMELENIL
Protocol: as §1, with “TYRO3” for “MER”, “(POC)” for “(POC) was”, “were” for “are”
CNc1cc2c(cn1)c(-c1cnn(C)c1)nn2[C@H]1CC[C@@H](Oc2nn(C)c(=O)cc2C)CC1 [Example 6, 2,5-dimethyl-6-(((1s,4s)-4-(3-(1-methyl-1H-pyrazol-4-yl)-6-(methylamino)-1H-pyrazolo[4,3-c]pyridin-1-yl)cyclohexyl)oxy)pyridazin-3(2H)-one] was tested, and the pIC50 was 5.00 to 6.00. With CNc1cc2c(cn1)c(-c1cnn(C)c1)nn2[C@H]1CC[C@@H](Oc2nn(C)c(=O)c(C)c2C)CC1 [Example 8, 2,4,5-trimethyl-6-(((1s,4s)-4-(3-(1-methyl-1H-pyrazol-4-yl)-6-(methylamino)-1H-pyrazolo[4,3-c]pyridin-1-yl)cyclohexyl)oxy)pyridazin-3(2H)-one hydrochloride] the pIC50 was 5.00 to 6.00. CCNc1cc2c(cn1)c(-c1cnn(C)c1)nn2[C@H]1CC[C@@H](Oc2ccc(=O)n(CCOC)n2)CC1 [Example 13, 6-(((1s,4s)-4-(6-(ethylamino)-3-(1-methyl-1H-pyrazol-4-yl)-1H-pyrazolo[4,3-c]pyridin-1-yl)cyclohexyl)oxy)-2-(2-methoxyethyl)pyridazin-3(2H)-one] gave a pIC50 of 5.00 to 6.00. With CCn1nc(O[C@H]2CC[C@@H](n3nc(-c4cnn(C)c4)c4cnc(NC)cc43)CC2)ccc1=O [Example 14, 2-ethyl-6-(((1s,4s)-4-(3-(1-methyl-1H-pyrazol-4-yl)-6-(methylamino)-1H-pyrazolo[4,3-c]pyridin-1-yl)cyclohexyl)oxy)pyridazin-3(2H)-one] the pIC50 was 5.00 to 6.00. With CNc1cc2c(cn1)c(-c1cnn(C)c1)nn2[C@H]1CC[C@@H](Oc2ccc(=O)n(CC(C)C)n2)CC1 [Example 16, 2-isobutyl-6-(((1s,4s)-4-(3-(1-methyl-1H-pyrazol-4-yl)-6-(methylamino)-1H-pyrazolo[4,3-c]pyridin-1-yl)cyclohexyl)oxy)pyridazin-3(2H)-one] the pIC50 was 5.00 to 6.00. CNc1cc2c(cn1)c(-c1cnn(C)c1)nn2[C@H]1CC[C@@H](Oc2ccc(=O)n(CCOC)n2)CC1 [Example 17, 2-(2-methoxyethyl)-6-(((1s,4s)-4-(3-(1-methyl-1H-pyrazol-4-yl)-6-(methylamino)-1H-pyrazolo[4,3-c]pyridin-1-yl)cyclohexyl)oxy)pyridazin-3(2H)-one] was tested, and the pIC50 was 5.00 to 6.00. Compound CNc1cc2c(cn1)c(-c1cnn(C)c1)nn2[C@H]1CC[C@@H](Oc2ccc(=O)n(CCN(C)C)n2)CC1 [Example 18, 2-(2-(dimethylamino)ethyl)-6-(((1s,4s)-4-(3-(1-methyl-1H-pyrazol-4-yl)-6-(methylamino)-1H-pyrazolo[4,3-c]pyridin-1-yl)cyclohexyl)oxy)pyridazin-3(2H)-one] has a pIC50 of 5.00 to 6.00. CNc1cc2c(cn1)c(-c1cnn(C)c1)nn2[C@H]1CC[C@@H](Oc2ccc(=O)n(Cc3ccc(OC)cc3)n2)CC1 [Example 20, 2-(4-methoxybenzyl)-6-(((1s,4s)-4-(3-(1-methyl-1H-pyrazol-4-yl)-6-(methylamino)-1H-pyrazolo[4,3-c]pyridin-1-yl)cyclohexyl)oxy)pyridazin-3(2H)-one] showed a pIC50 of 5.00 to 6.00. CNc1cc2c(cn1)c(-c1cnn(C)c1)nn2[C@H]1CC[C@@H](Oc2ccc(=O)[nH]n2)CC1 [Example 21, 6-(((1s,4s)-4-(3-(1-methyl-1H-pyrazol-4-yl)-6-(methylamino)-1H-pyrazolo[4,3-c]pyridin-1-yl)cyclohexyl)oxy)pyridazin-3(2H)-one] was tested, and the pIC50 was 5.00 to 6.00. With CNc1cc2c(cn1)c(-c1cnn(C)c1)nn2[C@H]1CC[C@@H](Oc2ccn(C)c(=O)c2)CC1 [Example 24, 1-methyl-4-(((1s,4s)-4-(3-(1-methyl-1H-pyrazol-4-yl)-6-(methylamino)-1H-pyrazolo[4,3-c]pyridin-1-yl)cyclohexyl)oxy)pyridin-2(1H)-one] the pIC50 was over 8.00.
